Test results: PubChem BioAssay AID2060326 (Molecular Pharmacology Branch, DTP, NCI, 2025)
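Note: spheroids exposed to agents for seven days; 100% = DMSO vehicle control viability.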

These compounds were tested on MDA-MB-468 multi-cell spheroids, viability (assay: Anticancer human tumor MDA-MB-468 cell line growth inhibition [IpAb]). Settings: second compound 0.0316 µM; first compound 3.16 µM; stronger effect = lower value.
In short: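 Multi-cell spheroids of 60% tumour cells, 25% HUVEC and 15% MSC in ultra-low-attachment U-bottom wells, treated with agents combined with ipatasertib or abemaciclib. Half-log ranges top out near clinical Cmax, or 10 microM when Cmax is unknown.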
Work on C=CC(=O)N1CCN(c2nc(=O)n(-c3c(C)ccnc3C(C)C)c3nc(-c4c(O)cccc4F)c(F)cc23)C(C)C1 (centres undefined) + CCN1CCN(Cc2ccc(Nc3ncc(F)c(-c4cc(F)c5nc(C)n(C(C)C)c5c4)n3)nc2)CC1 yielded a viability, T/C of 79.8%.
In the case of Cn1nccc1Nc1nccc(-c2ccn(C(CO)c3ccc(Cl)c(F)c3)c(=O)c2)n1 (centres undefined) + CCN1CCN(Cc2ccc(Nc3ncc(F)c(-c4cc(F)c5nc(C)n(C(C)C)c5c4)n3)nc2)CC1, the viability, T/C is reported as 73.1%.
For C=CCn1c(=O)c2cnc(Nc3ccc(N4CCN(C)CC4)cc3)nc2n1-c1cccc(C(C)(C)O)n1 + CCN1CCN(Cc2ccc(Nc3ncc(F)c(-c4cc(F)c5nc(C)n(C(C)C)c5c4)n3)nc2)CC1, the viability, T/C was 2.93%.

Same assay, conditions: second compound 0.0316 µM; first compound 10 µM; stronger effect = lower value
With C=CC(=O)N1CCN(c2nc(=O)n(-c3c(C)ccnc3C(C)C)c3nc(-c4c(O)cccc4F)c(F)cc23)C(C)C1 (centres undefined) + CCN1CCN(Cc2ccc(Nc3ncc(F)c(-c4cc(F)c5nc(C)n(C(C)C)c5c4)n3)nc2)CC1 the viability, T/C was 38.3%.
Cn1nccc1Nc1nccc(-c2ccn(C(CO)c3ccc(Cl)c(F)c3)c(=O)c2)n1 (centres undefined) + CCN1CCN(Cc2ccc(Nc3ncc(F)c(-c4cc(F)c5nc(C)n(C(C)C)c5c4)n3)nc2)CC1 showed a viability, T/C of 6.23%.
Compound C=CCn1c(=O)c2cnc(Nc3ccc(N4CCN(C)CC4)cc3)nc2n1-c1cccc(C(C)(C)O)n1 + CCN1CCN(Cc2ccc(Nc3ncc(F)c(-c4cc(F)c5nc(C)n(C(C)C)c5c4)n3)nc2)CC1 has a viability, T/C of 2.24%.

Same assay, conditions: second compound 0.1 µM; first compound 0.0316 µM; stronger effect = lower value
With Cn1ncc(Cl)c1-c1cc(C(=O)NC(CN)Cc2cccc(F)c2)sc1Cl (centres undefined) + CC(C)NCC(C(=O)N1CCN(c2ncnc3c2C(C)CC3O)CC1)c1ccc(Cl)cc1 the viability, T/C was 71.1%.
Compound Cn1nccc1Nc1nccc(-c2ccn(C(CO)c3ccc(Cl)c(F)c3)c(=O)c2)n1 (centres undefined) + CC(C)NCC(C(=O)N1CCN(c2ncnc3c2C(C)CC3O)CC1)c1ccc(Cl)cc1 has a viability, T/C of 90.7%.
With C=CC(=O)N1CCN(c2nc(=O)n(-c3c(C)ccnc3C(C)C)c3nc(-c4c(O)cccc4F)c(F)cc23)C(C)C1 (centres undefined) + CCN1CCN(Cc2ccc(Nc3ncc(F)c(-c4cc(F)c5nc(C)n(C(C)C)c5c4)n3)nc2)CC1 the viability, T/C was 101%.
With Cn1nccc1Nc1nccc(-c2ccn(C(CO)c3ccc(Cl)c(F)c3)c(=O)c2)n1 (centres undefined) + CCN1CCN(Cc2ccc(Nc3ncc(F)c(-c4cc(F)c5nc(C)n(C(C)C)c5c4)n3)nc2)CC1 the viability, T/C was 93.6%.
In the case of C=CCn1c(=O)c2cnc(Nc3ccc(N4CCN(C)CC4)cc3)nc2n1-c1cccc(C(C)(C)O)n1 + CCN1CCN(Cc2ccc(Nc3ncc(F)c(-c4cc(F)c5nc(C)n(C(C)C)c5c4)n3)nc2)CC1, the viability, T/C is reported as 121%.

Same assay, conditions: second compound 0.1 µM; first compound 0.1 µM; stronger effect = lower value
With Cn1ncc(Cl)c1-c1cc(C(=O)NC(CN)Cc2cccc(F)c2)sc1Cl (centres undefined) + CC(C)NCC(C(=O)N1CCN(c2ncnc3c2C(C)CC3O)CC1)c1ccc(Cl)cc1 the viability, T/C was 64%.
In the case of Cn1nccc1Nc1nccc(-c2ccn(C(CO)c3ccc(Cl)c(F)c3)c(=O)c2)n1 (centres undefined) + CC(C)NCC(C(=O)N1CCN(c2ncnc3c2C(C)CC3O)CC1)c1ccc(Cl)cc1, the viability, T/C is reported as 88.3%.
C=CC(=O)N1CCN(c2nc(=O)n(-c3c(C)ccnc3C(C)C)c3nc(-c4c(O)cccc4F)c(F)cc23)C(C)C1 (centres undefined) + CCN1CCN(Cc2ccc(Nc3ncc(F)c(-c4cc(F)c5nc(C)n(C(C)C)c5c4)n3)nc2)CC1 showed a viability, T/C of 106%.
Work on Cn1nccc1Nc1nccc(-c2ccn(C(CO)c3ccc(Cl)c(F)c3)c(=O)c2)n1 (centres undefined) + CCN1CCN(Cc2ccc(Nc3ncc(F)c(-c4cc(F)c5nc(C)n(C(C)C)c5c4)n3)nc2)CC1 yielded a viability, T/C of 87.5%.
Compound C=CCn1c(=O)c2cnc(Nc3ccc(N4CCN(C)CC4)cc3)nc2n1-c1cccc(C(C)(C)O)n1 + CCN1CCN(Cc2ccc(Nc3ncc(F)c(-c4cc(F)c5nc(C)n(C(C)C)c5c4)n3)nc2)CC1 has a viability, T/C of 93.1%.

Same assay, conditions: second compound 0.1 µM; first compound 0.316 µM; stronger effect = lower value
With Cn1ncc(Cl)c1-c1cc(C(=O)NC(CN)Cc2cccc(F)c2)sc1Cl (centres undefined) + CC(C)NCC(C(=O)N1CCN(c2ncnc3c2C(C)CC3O)CC1)c1ccc(Cl)cc1 the viability, T/C was 54.8%.
Cn1nccc1Nc1nccc(-c2ccn(C(CO)c3ccc(Cl)c(F)c3)c(=O)c2)n1 (centres undefined) + CC(C)NCC(C(=O)N1CCN(c2ncnc3c2C(C)CC3O)CC1)c1ccc(Cl)cc1 gave a viability, T/C of 85%.
Compound C=CC(=O)N1CCN(c2nc(=O)n(-c3c(C)ccnc3C(C)C)c3nc(-c4c(O)cccc4F)c(F)cc23)C(C)C1 (centres undefined) + CCN1CCN(Cc2ccc(Nc3ncc(F)c(-c4cc(F)c5nc(C)n(C(C)C)c5c4)n3)nc2)CC1 has a viability, T/C of 100%.
Cn1nccc1Nc1nccc(-c2ccn(C(CO)c3ccc(Cl)c(F)c3)c(=O)c2)n1 (centres undefined) + CCN1CCN(Cc2ccc(Nc3ncc(F)c(-c4cc(F)c5nc(C)n(C(C)C)c5c4)n3)nc2)CC1 was tested, and the viability, T/C was 86.2%.
Compound C=CCn1c(=O)c2cnc(Nc3ccc(N4CCN(C)CC4)cc3)nc2n1-c1cccc(C(C)(C)O)n1 + CCN1CCN(Cc2ccc(Nc3ncc(F)c(-c4cc(F)c5nc(C)n(C(C)C)c5c4)n3)nc2)CC1 has a viability, T/C of 67.3%.

Same assay, conditions: second compound 0.1 µM; first compound 1 µM; stronger effect = lower value
With Cn1ncc(Cl)c1-c1cc(C(=O)NC(CN)Cc2cccc(F)c2)sc1Cl (centres undefined) + CC(C)NCC(C(=O)N1CCN(c2ncnc3c2C(C)CC3O)CC1)c1ccc(Cl)cc1 the viability, T/C was 30.3%.
Cn1nccc1Nc1nccc(-c2ccn(C(CO)c3ccc(Cl)c(F)c3)c(=O)c2)n1 (centres undefined) + CC(C)NCC(C(=O)N1CCN(c2ncnc3c2C(C)CC3O)CC1)c1ccc(Cl)cc1 showed a viability, T/C of 65.3%.
C=CC(=O)N1CCN(c2nc(=O)n(-c3c(C)ccnc3C(C)C)c3nc(-c4c(O)cccc4F)c(F)cc23)C(C)C1 (centres undefined) + CCN1CCN(Cc2ccc(Nc3ncc(F)c(-c4cc(F)c5nc(C)n(C(C)C)c5c4)n3)nc2)CC1 gave a viability, T/C of 110%.
